Data published in patent US20070092454A1, “Oral composition containing morin” (Colgate-Palmolive Company, priority 2005, published 2007).

Experiment: LPO-CC Kamiya Bioscience kit anti-oxidant efficacy assay (methylene blue, optical density at 674 nm)
Assay type: biochemical
Conditions: simple composition containing 1.0% by weight of active; compared with 1.0% vitamin E; FIG. 1; lower optical density at 674 nm = better efficacy
From the text: Reaction processes in the kit used can be summarized as follows. Cumene hydroperoxide (CHO) is combined with an enzyme mixture of ascorbic oxidase and lipoprotein lipase in order to produce lipid peroxide. Samples and standards are then combined with a second reagent containing methyl carbamate (MCDP) and hemoglobin. In the presence of hemoglobin, lipid peroxides are converted to lipid alcohols which in turn convert the MCDP to methylene blue that can be read at 674 nm. This translates to decreased color intensity which is measured by spectroscopy at 674 nm. […] In other words, the lower the optical density reading the better the anti-oxidant efficacy.

In the case of `O=c1c(O)c(-c2ccc(O)cc2O)oc2cc(O)cc(O)c12` [morin, 2′,3,4′,5,7-pentahydroxyflavone], the anti-oxidative efficacy is reported as “anti-oxidative efficacy as good as positive control vitamin E”.
